From paper PMC7576618 (British Journal of Clinical Pharmacology, 2020)

Test system: healthy subjects
Test: SAD study: safety and tolerability
Format: in vivo, human
[1] = SAD Parts A and C, fasted conditions (total TS‐134)
[2] = SAD Parts A and C, fed conditions (total TS‐134)
[3] = SAD Parts A and C, 5 mg fasted (n = 6)
[4] = SAD Parts A and C, 10 mg fasted (n = 6)
[5] = SAD Parts A and C, 10 mg fed (n = 5)
[6] = SAD Parts A and C, 20 mg fasted (n = 7)
[7] = SAD Parts A and C, 20 mg fed (n = 3)
[8] = SAD Parts A and C, Total TS‐134 fasted (n = 19)
[9] = SAD Parts A and C, Total TS‐134 fed (n = 8)

With `CC(C)[C@@H]1CC[C@@H](C)C[C@H]1OC(=O)O[C@@H](C)OC(=O)[C@H]1[C@@H]2C[C@H](F)[C@@](N)(C(=O)O)[C@@H]21.O=S(=O)(O)c1ccccc1` [TS‐134, (1S,2S,3S,5R,6S)‐2‐amino‐3‐ fluoro‐6‐({(1S)‐1‐[({[(1R,2S,5R)‐5‐methyl‐2‐(propan‐2‐yl)cyclohexyl]oxy}carbonyl)oxy]ethoxy}carbonyl)bicyclo[3.1.0]hexane‐2‐carboxylic acid monobenzenesulfonate] the incidence of headache (SAD Part B, fed 10 mg TS‐134) was 25.0%, the “incidence of post lumbar puncture syndrome” value (SAD Part B, fed 10 mg TS‐134) was 37.5% and the incidence of somnolence (SAD Part B, fed 10 mg TS‐134) was 25.0%. For the same compound, the incidence of vomiting (SAD Part B, fed 10 mg TS‐134) was 25.0%, the Abnormal dreams (SAD Part B, 10 mg fed (n = 8)) was 0 Number of subjects (%) and the Dizziness (SAD Part B, 10 mg fed (n = 8)) was 0 Number of subjects (%). For the same compound, the Headache (SAD Part B, 10 mg fed (n = 8)) was 2 (25.0) Number of subjects (%), the Insomnia (SAD Part B, 10 mg fed (n = 8)) was 0 Number of subjects (%) and the Nausea (SAD Part B, 10 mg fed (n = 8)) was 0 Number of subjects (%). For the same compound, the “Number of subjects with at least 1 TEAE” value (SAD Part B, 10 mg fed (n = 8)) was 6 (75.0) Number of subjects (%), the “Post lumbar puncture syndrome” value (SAD Part B, 10 mg fed (n = 8)) was 3 (37.5) Number of subjects (%) and the Pruritus (SAD Part B, 10 mg fed (n = 8)) was 0 Number of subjects (%). For the same compound, the Somnolence (SAD Part B, 10 mg fed (n = 8)) was 2 (25.0) Number of subjects (%), the “Total number of TEAEs” value (SAD Part B, 10 mg fed (n = 8)) was 10 and the Vomiting (SAD Part B, 10 mg fed (n = 8)) was 2 (25.0) Number of subjects (%). It also gave an incidence of nausea [1] of 21.1%, an incidence of vomiting [1] of 31.6% and an incidence of headache [2] of 25.0%. The incidence of nausea [2] was 25.0%, the Abnormal dreams [3] was 0 Number of subjects (%) and the Dizziness [3] was 0 Number of subjects (%). The Headache [3] was 1 (16.7) Number of subjects (%), the Insomnia [3] was 0 Number of subjects (%) and the Nausea [3] was 0 Number of subjects (%). The “Number of subjects with at least 1 TEAE” value [3] was 2 (33.3) Number of subjects (%), the “Post lumbar puncture syndrome” value [3] was 0 Number of subjects (%) and the Pruritus [3] was 0 Number of subjects (%). For the same compound, the Somnolence [3] was 0 Number of subjects (%), the “Total number of TEAEs” value [3] was 2 and the Vomiting [3] was 0 Number of subjects (%). For the same compound, the Abnormal dreams [4] was 0 Number of subjects (%), the Dizziness [4] was 0 Number of subjects (%) and the Headache [4] was 0 Number of subjects (%). The Insomnia [4] was 0 Number of subjects (%), the Nausea [4] was 1 (16.7) Number of subjects (%) and the “Number of subjects with at least 1 TEAE” value [4] was 4 (66.7) Number of subjects (%). The “Post lumbar puncture syndrome” value [4] was 0 Number of subjects (%), the Pruritus [4] was 0 Number of subjects (%) and the Somnolence [4] was 1 (16.7) Number of subjects (%). For the same compound, the “Total number of TEAEs” value [4] was 6, the Vomiting [4] was 2 (33.3) Number of subjects (%) and the Abnormal dreams [5] was 0 Number of subjects (%). For the same compound, the Dizziness [5] was 0 Number of subjects (%), the Headache [5] was 1 (20.0) Number of subjects (%) and the Insomnia [5] was 0 Number of subjects (%). For the same compound, the Nausea [5] was 1 (20.0) Number of subjects (%), the “Number of subjects with at least 1 TEAE” value [5] was 3 (60.0) Number of subjects (%) and the “Post lumbar puncture syndrome” value [5] was 0 Number of subjects (%). For the same compound, the Pruritus [5] was 0 Number of subjects (%), the Somnolence [5] was 0 Number of subjects (%) and the “Total number of TEAEs” value [5] was 4. The Vomiting [5] was 1 (20.0) Number of subjects (%), the Abnormal dreams [6] was 0 Number of subjects (%) and the Dizziness [6] was 0 Number of subjects (%). For the same compound, the Headache [6] was 1 (14.3) Number of subjects (%), the Insomnia [6] was 0 Number of subjects (%) and the Nausea [6] was 3 (42.9) Number of subjects (%). For the same compound, the “Number of subjects with at least 1 TEAE” value [6] was 5 (71.4) Number of subjects (%), the “Post lumbar puncture syndrome” value [6] was 0 Number of subjects (%) and the Pruritus [6] was 0 Number of subjects (%). The Somnolence [6] was 0 Number of subjects (%), the “Total number of TEAEs” value [6] was 11 and the Vomiting [6] was 4 (57.1) Number of subjects (%). The Abnormal dreams [7] was 0 Number of subjects (%), the Dizziness [7] was 0 Number of subjects (%) and the Headache [7] was 1 (33.3) Number of subjects (%). For the same compound, the Insomnia [7] was 0 Number of subjects (%), the Nausea [7] was 1 (33.3) Number of subjects (%) and the “Number of subjects with at least 1 TEAE” value [7] was 1 (33.3) Number of subjects (%). The “Post lumbar puncture syndrome” value [7] was 0 Number of subjects (%), the Pruritus [7] was 0 Number of subjects (%) and the Somnolence [7] was 0 Number of subjects (%). For the same compound, the “Total number of TEAEs” value [7] was 3, the Vomiting [7] was 0 Number of subjects (%) and the Abnormal dreams [8] was 0 Number of subjects (%). The Dizziness [8] was 0 Number of subjects (%), the Headache [8] was 2 (10.5) Number of subjects (%) and the Insomnia [8] was 0 Number of subjects (%). For the same compound, the Nausea [8] was 4 (21.1) Number of subjects (%), the “Number of subjects with at least 1 TEAE” value [8] was 11(57.9) Number of subjects (%) and the “Post lumbar puncture syndrome” value [8] was 0 Number of subjects (%). The Pruritus [8] was 0 Number of subjects (%), the Somnolence [8] was 1 (5.3) Number of subjects (%) and the “Total number of TEAEs” value [8] was 19. The Vomiting [8] was 6 (31.6) Number of subjects (%), the Abnormal dreams [9] was 0 Number of subjects (%) and the Dizziness [9] was 0 Number of subjects (%). The Headache [9] was 2 (25.0) Number of subjects (%), the Insomnia [9] was 0 Number of subjects (%) and the Nausea [9] was 2 (25.0) Number of subjects (%). The “Number of subjects with at least 1 TEAE” value [9] was 4 (50.0) Number of subjects (%), the “Post lumbar puncture syndrome” value [9] was 0 Number of subjects (%) and the Pruritus [9] was 0 Number of subjects (%).
